In US20240327334A1, “Covalent Inhibitors As Antiviral Agents” (Enanta Pharmaceuticals, Inc., priority 2022, published 2024):

What follows are molecules tested against SARS-CoV-2 Papain-like (PLpro) protease (Severe acute respiratory syndrome coronavirus 2, UniProt P0DTD1) (assay: SARS-CoV-2 Papain-like (PLpro) protease biochemical enzyme inhibition assay (ubiquitin-fluorophore substrate, Ub-R110)). Settings: not given.
In the case of `C[Si](C)(C)C#CCNC(=O)C(=O)NCc1ccccc1C(=O)NC1(c2ccc3ccccc3c2)CC1` [Example 202], the IC50 is reported as over 10000 nM.

Same assay, conditions: Ub-R110 substrate; run in duplicate; read-out: PLpro IC50
For `C#C[C@@H](C)NC(=O)C(=O)NCc1ccccc1C(=O)NC1(c2cccc3ccccc23)CC1` [Example 157], the IC50 was 1000 to 10000 nM. With `O=C(NC/C=C1\CCOC1=O)C(=O)NCc1ccccc1C(=O)NC1(c2ccc3ccccc3c2)CC1` [Example 162] the IC50 was 100 to 1000 nM. With `C#C[C@H](C)NC(=O)C(=O)NCc1ccccc1C(=O)NC1(c2ccc3ccccc3c2)CC1` [Example 164] the IC50 was 1000 to 10000 nM. Molecule `Cn1cc(C#CCNC(=O)C(=O)NCc2ccccc2C(=O)NC2(c3ccc4ccccc4c3)CC2)cn1` [Example 169] has an IC50 of over 10000 nM. `O=C(NCC#Cc1cccnc1)C(=O)NCc1ccccc1C(=O)NC1(c2ccc3ccccc3c2)CC1` [Example 170] showed an IC50 of 1000 to 10000 nM. Work on `N#Cc1ncc(C#CCNC(=O)C(=O)NCc2ccccc2C(=O)NC2(c3ccc4ccccc4c3)CC2)cn1` [Example 182] yielded an IC50 of over 10000 nM. `CCOc1cccnc1C#CC1(NC(=O)C(=O)NCc2ccccc2C(=O)NC2(c3ccc4ccccc4c3)CC2)CC1` [Example 203] gave an IC50 of over 10000 nM. `CC(C)[C@@H](C#Cc1ccccn1)NC(=O)C(=O)NCc1ccccc1C(=O)NC1(c2ccc3nn(C)cc3c2)CC1` [Example 204] showed an IC50 of over 10000 nM. With `CC(C)[C@@H](C#Cc1ncccc1C(F)(F)F)NC(=O)C(=O)NCc1ccccc1C(=O)NC1(c2ccc3nn(C)cc3c2)CC1` [Example 205] the IC50 was over 10000 nM. `CC(C)[C@@H](C#Cc1ccccn1)NC(=O)C(=O)NCc1ccccc1C(=O)NC1(c2ccc3ccccc3c2)CC1` [Example 207] gave an IC50 of over 10000 nM. Work on `C[C@@H](C#Cc1ccc(C#N)cc1OC(F)(F)F)NC(=O)C(=O)NCc1ccccc1C(=O)NC1(c2ccc3ccccc3c2)CC1` [Example 208] yielded an IC50 of over 10000 nM. `CN1CCC(n2cc(-c3cc(F)cc(C4(NC(=O)c5ccccc5CNC(=O)C(=O)NCC#Cc5cnc(F)nc5)CC4)c3)cn2)CC1` [Example 256] was tested, and the IC50 was under 100 nM. With `CC(C)Oc1cccnc1C#C[C@H](C)NC(=O)C(=O)NCc1ccccc1C(=O)NC1(c2cc(F)cc(-c3cnn(C4CC4)c3)c2)CC1` [Example 268] the IC50 was 100 to 1000 nM. Molecule `CC(C)n1nccc1C#CCNC(=O)C(=O)NCc1ccccc1C(=O)NC1(c2cc(F)cc(-c3cnn(C4CC4)c3)c2)CC1` [Example 278] has an IC50 of 100 to 1000 nM. In the case of `CC(C)(O)Cn1cc(-c2cc(F)cc(C3(NC(=O)c4ccccc4CNC(=O)C(=O)NCC#N)CC3)c2)cn1` [Example 282], the IC50 is reported as 100 to 1000 nM. Work on `N#CCNC(=O)C(=O)NCc1c(Cl)cccc1C(=O)NC1(c2cc(-c3cnn(C4CC4)c3)cc3ccccc23)CC1` [Example 291] yielded an IC50 of over 10000 nM. With `N#CCNC(=O)C(=O)NCc1ccccc1C(=O)NC1(c2ccc(F)c(OC(F)(F)F)c2)CC1` [Example 309] the IC50 was 1000 to 10000 nM. With `N#CCNC(=O)C(=O)N1Cc2cccc(C(=O)NC3(c4cc(Br)cc5ccccc45)CC3)c2C1` [Example 315] the IC50 was 1000 to 10000 nM. `N#CN1CCC[C@H]1CC(=O)NCc1ccccc1C(=O)NC1(c2cc(Br)cc3ccccc23)CC1` [Example 316] showed an IC50 of 100 to 1000 nM. For `N#CCNC(=O)C(=O)NCc1ccccc1C(=O)NC1(c2cc(N3CCOC3=O)cc3ccccc23)CC1` [Example 317], the IC50 was under 100 nM. `C[C@@H](NC(=O)c1ccccc1CNC(=O)C(=O)NCC#N)c1cc(C(F)(F)F)nc2ccccc12` [Example 325] gave an IC50 of over 10000 nM. In the case of `Cn1cc2c(F)c(C3(NC(=O)c4ccccc4CNC(=O)C(=O)NCC#N)CC3)ccc2n1` [Example 332], the IC50 is reported as under 100 nM. Molecule `C#CCNC(=O)C(=O)NCc1ccccc1C(=O)NC1(c2cc(Cl)c3nn(C4CC4)cc3c2)CC1` [Example 339] has an IC50 of under 100 nM. Work on `Cn1cc2ccc(C3(NC(=O)c4ccccc4CNC(=O)C(=O)NCC#N)CC3)cc2n1` [Example 340] yielded an IC50 of 100 to 1000 nM. `C[C@@H](NC(=O)c1cc(F)cc(F)c1CNC(=O)C(=O)NCC#N)c1cccc2ccccc12` [Example 361] was tested, and the IC50 was over 10000 nM. For `COC(=O)/C=C/CNC(=O)C(=O)NCc1ncoc1C(=O)N[C@H](C)c1cccc2ccccc12` [Example 364], the IC50 was over 10000 nM. Molecule `C[C@@H](NC(=O)c1ocnc1CNC(=O)C(=O)NCC#N)c1cccc2ccccc12` [Example 365] has an IC50 of over 10000 nM. Molecule `N#CCCNC(=O)C(=O)NCCc1ccccc1C(=O)NC1(c2ccc3ccccc3c2)CC1` [Example 368] has an IC50 of over 10000 nM. `N#CCNC(=O)C(=O)NCc1ccccc1C(=O)NC1(c2cc(C(F)(F)F)ccc2F)CC1` [Example 371] gave an IC50 of 1000 to 10000 nM. `N#CCNC(=O)C(=O)NCCc1ccccc1C(=O)NC1(c2ccc3ccccc3c2)CC1` [Example 372] gave an IC50 of over 10000 nM. Work on `N#CCNC(=O)C(=O)NCc1ccccc1C(=O)NC1(c2cccc(Br)c2F)CC1` [Example 373] yielded an IC50 of 100 to 1000 nM. For `C#CCNC(=O)C(=O)NCc1ccccc1C(=O)NC1(c2cccc3ncccc23)CC1` [Example 374], the IC50 was under 100 nM. `N#CCNC(=O)C(=O)NCc1ccccc1C(=O)NC1(c2cc(F)cc(C(F)(F)F)c2)CC1` [Example 375] showed an IC50 of 1000 to 10000 nM. With `N#CCNC(=O)C(=O)NCc1ccccc1C(=O)NC1(c2cccc(C(F)(F)F)c2F)CC1` [Example 376] the IC50 was 100 to 1000 nM. `N#CCNC(=O)C(=O)NCc1ccccc1C(=O)NC1(c2cc(C(F)(F)F)ccc2Cl)CC1` [Example 377] showed an IC50 of 100 to 1000 nM. With `N#CCNC(=O)C(=O)NCc1ccccc1C(=O)NC1(c2cccc(Cl)c2Cl)CC1` [Example 378] the IC50 was 100 to 1000 nM. For `N#CCNC(=O)C(=O)NCc1ccccc1C(=O)NC1(c2cccc(-c3ccc(F)cc3)c2F)CC1` [Example 379], the IC50 was under 100 nM. With `C#CCNC(=O)C(=O)NCc1ccccc1C(=O)NC1(c2ccc3ncccc3c2)CC1` [Example 388] the IC50 was under 100 nM. `O=C(NCC#Cc1nccs1)C(=O)NCc1ccccc1C(=O)NC1(c2ccc3ncccc3c2)CC1` [Example 389] gave an IC50 of under 100 nM. Work on `O=C(NCC#Cc1nccs1)C(=O)NCc1ccccc1C(=O)NC1(c2cccc3nc(C4CC4)ccc23)CC1` [Example 390] yielded an IC50 of under 100 nM. Molecule `O=C(NCC#Cc1nccs1)C(=O)NCc1ccccc1C(=O)NC1(c2cccc3cnccc23)CC1` [Example 391] has an IC50 of under 100 nM. With `C#CCNC(=O)C(=O)NCc1ccccc1C(=O)NC1(c2cc(-c3c(C)nn(C)c3C)ccc2Cl)CC1` [Example 395] the IC50 was 100 to 1000 nM. `Cn1ccc(C#CCNC(=O)C(=O)NCc2ccccc2C(=O)NC2(c3ccc4ccccc4c3)CC2)n1` [Example 397] was tested, and the IC50 was 100 to 1000 nM. For `N#CCNC(=O)C(=O)NCc1ccccc1C(=O)NC1(c2ccc3nc(C4CC4)ccc3c2)CC1` [Example 400], the IC50 was under 100 nM. `O=C(NC/C=C\c1nccs1)C(=O)NCc1ccccc1C(=O)NC1(c2ccc3ccccc3c2)CC1` [Example 401] was tested, and the IC50 was 1000 to 10000 nM. `N#CCCCNC(=O)C(=O)NCc1ccccc1C(=O)NC1(c2ccc3ccccc3c2)CC1` [Example 403] showed an IC50 of 1000 to 10000 nM. With `N#CCNC(=O)C(=O)NCc1ccccc1C(=O)NC1(c2cccn3nccc23)CC1` [Example 405] the IC50 was 100 to 1000 nM. In the case of `N#CCNC(=O)C(=O)NCc1ccccc1C(=O)NC1(c2ccnc3c2ccn3C2CC2)CC1` [Example 406], the IC50 is reported as under 100 nM. In the case of `N#CCNC(=O)C(=O)NCc1ccccc1C(=O)NC1(c2ccnc3ccccc23)CC1` [Example 407], the IC50 is reported as under 100 nM. In the case of `N#CCNC(=O)C(=O)NCc1ccccc1C(=O)NC1(c2c[nH]c3ncccc23)CC1` [Example 408], the IC50 is reported as under 100 nM. `O=C(NCC#Cc1ccc2c(c1)CNC2=O)C(=O)NCc1ccccc1C(=O)NC1(c2ccc3ccccc3c2)CC1` [Example 410] showed an IC50 of 100 to 1000 nM. With `N#CCCCNC(=O)C(=O)NCc1ccccc1C(=O)NC1(c2cccc3ccccc23)CC1` [Example 412] the IC50 was 1000 to 10000 nM. `N#CCNC(=O)C(=O)NCc1ccccc1C(=O)NC1(c2cc(-c3cnn(C4CC4)c3)nc3[nH]ccc23)CC1` [Example 414] was tested, and the IC50 was 100 to 1000 nM. For `N#CCCOC(=O)NCc1ccccc1C(=O)NC1(c2cc(Br)cc3ccccc23)CC1` [Example 420], the IC50 was 1000 to 10000 nM. Work on `N#CCCCCNC(=O)C(=O)NCc1ccccc1C(=O)NC1(c2cc(Br)cc3ccccc23)CC1` [Example 421] yielded an IC50 of 1000 to 10000 nM. `CC(C)(O)/C=C/c1cc(C2(NC(=O)c3ccccc3CNC(=O)C(=O)NCC#N)CC2)c2ccccc2c1` [Example 422] showed an IC50 of under 100 nM. Work on `N#CN1CC(CNC(=O)C(=O)NCc2ccccc2C(=O)NC2(c3ccc4ccccc4c3)CC2)C1` [Example 430] yielded an IC50 of 100 to 1000 nM. In the case of `N#CN1CC(CCNC(=O)C(=O)NCc2ccccc2C(=O)NC2(c3cccc4ccccc34)CC2)C1` [Example 433], the IC50 is reported as 1000 to 10000 nM. In the case of `N#CN1CC(NC(=O)C(=O)NCc2ccccc2C(=O)NC2(c3cccc4ccccc34)CC2)C1` [Example 436, N1-(1-cyanoazetidin-3-yl)-N2-(2-((1-(naphthalen-1-yl)cyclopropyl)carbamoyl)benzyl)oxalamide], the IC50 is reported as 100 to 1000 nM. `N#C/C=C/CCNC(=O)C(=O)NCc1ccccc1C(=O)NC1(c2ccc3c4c(cccc24)CC3)CC1` [Example 437] showed an IC50 of 100 to 1000 nM. With `C[C@@H](NC(=O)c1ccccc1CNC(=O)C(=O)NCC#N)c1cc(-c2ccsc2)cc(C(F)(F)F)c1` [Example 466] the IC50 was over 10000 nM. With `N#CCNC(=O)C(=O)NCc1ccccc1C(=O)NC1(c2cc(-c3ccccc3)cc(C(F)(F)F)c2)CC1` [Example 468] the IC50 was 100 to 1000 nM. For `Cc1cnn(C)c1-c1cc(C(F)(F)F)cc(C2(NC(=O)c3ccccc3CNC(=O)C(=O)NCC#N)CC2)c1` [Example 474], the IC50 was 100 to 1000 nM. `C#CCNC(=O)C(=O)NCc1ccccc1C(=O)NC1(c2cc(-c3c(C)cnn3C)cc(C(F)(F)F)c2)CC1` [Example 475] was tested, and the IC50 was 100 to 1000 nM. `Cc1nnc(-c2cc(-c3nnc(C)o3)cc(C3(NC(=O)c4ccccc4CNC(=O)C(=O)NCC#N)CC3)c2)o1` [Example 478] showed an IC50 of 100 to 1000 nM. Work on `C#CCNC(=O)C(=O)NCc1ccccc1C(=O)NC1(c2cc(-c3nnc(C)o3)cc(-c3nnc(C)o3)c2)CC1` [Example 479] yielded an IC50 of 100 to 1000 nM. `Cc1nn(C)cc1-c1cc(Cl)cc(C2(NC(=O)c3ccccc3CNC(=O)C(=O)NCC#N)CC2)c1` [Example 482] was tested, and the IC50 was under 100 nM. In the case of `Cc1nnc(-c2cc(Cl)cc(C3(NC(=O)c4ccccc4CNC(=O)C(=O)NCC#N)CC3)c2)o1` [Example 483], the IC50 is reported as 100 to 1000 nM. Molecule `O=C(NCC#Cc1nccs1)C(=O)NCc1ccccc1C(=O)NC1(c2cc(Cl)cc(-c3nccs3)c2)CC1` [Example 488] has an IC50 of under 100 nM. In the case of `C=CCNC(=O)C(=O)NCc1ccccc1C(=O)NC1(c2ccc3ccccc3c2)CC1` [Example 497], the IC50 is reported as over 10000 nM. In the case of `N#CN1CC[C@@H]1CNC(=O)C(=O)NCc1ccccc1C(=O)NC1(c2cccc3ccccc23)CC1` [Example 498], the IC50 is reported as 100 to 1000 nM.
